Laboratory results from patent US11800867B2, “Methods of repelling biting arthropods, reducing pathogen spread and treating arthropod infestation” (priority 2016, dated 2023).
“And” between values parts separate entries of the source, which are not always exact repeats. Equal values may be shown once. “Also recorded” adds a separate entry of the source.

Assays:
Format in all cases: in vivo
[1] = tested on: Aedes aegypti mosquitoes; assay: Choice design repellency test, treated collagen membrane-covered wells filled with warm blood (Example 1); conditions: 1% nootkatone compositions (ethanol and acetone based); probing recorded during 20 min
Experimental: In the following example, the effectiveness of 1% nootkatone compositions in repelling mosquitoes was determined in comparison with DEET in a choice design test.
Compositions of 1% nootkatone were formulated in either ethanol or acetone and coated onto collagen membrane-covered wells filled with warm blood.
Two hundred and fifty female mosquitoes aged 4-8 days were sucrose deprived for 18 hr and then introduced to the collagen membrane-covered wells. Mosquito probing of the treated collagen membranes was recorded every 2 min during a 20 min period.
Five replicates were performed. A 20% DEET composition was used as a positive control and an ethanol only solution served as a negative control.

[2] = tested on: deer ticks (Ixodes scapularis); assay: Filter paper choice test of repelling action (Example 6)
Experimental: (§1) An in vitro laboratory trial was required to assess the repelling action of nootkatone applied to filter paper against cat fleas (Ctenocephalides felis), deer ticks (Ixodes scapularis), bed bugs (Cimex lectularius), and termites (Reticulitermes flavipes) in a choice test design.
(§2) The sponsor provided a sample of nootkatone (98%), which was diluted in ethanol to a 0.5% concentration. The treatment was applied to filter paper at a rate of 1 mL for a 9 cm filter paper disc, and a rate of 1.9 mL for a 15 cm filter paper disc. A negative control group, consisting of untreated filter paper, was also assessed for comparison purposes.
Deer ticks: Treated and untreated filter papers were cut in half and fitted into the bottom of a 9 cm petri dish. Treated replicates received one half treated and one half untreated filter paper; negative control replicates received untreated filter paper only. The petri dish arenas were then placed on their sides, with the control halves positioned at the lower half and the treated half at the upper half.
Deer ticks: Ticks were introduced, one at a time, to the bottom half of the control (untreated) arena, and monitored to see how long it took them to get to the upper “treated” side of the arena. Ticks were allowed up to three minutes to cross into the upper area of each arena. […] Once a tick had crossed into the upper side of the control arena, it was gently picked up with forceps and placed in the bottom half of the treated arena, and the procedure repeated. Ticks were considered “not repelled” if they crossed onto the treated side of the treated arena within three minutes.
The number of repelled ticks for each replicate was added together, and the average and standard error were calculated across all five replicates. The numbers were divided by the total number of ticks per replicate to obtain the percent repellency.

[3] = tested on: female Culex quinquefasciatus mosquitoes; assay: In vitro membrane feeder repellency assay, probing of treated collagen membranes (Example 2); conditions: for Percent repellency: 25 μL on collagen membrane, twenty minutes, average ± SE, n = 5
Source text: (§3) A laboratory trial was required to evaluate the repellency of 1% Nootkatone against female Aedes aegypti, Culex quinquefasciatus, and Anopheles quadrimaculatus mosquitoes using an in vitro method.
(§4) Female adult laboratory reared Aedes aegypti, Culex quinquefasciatus, and Anopheles quadrimaculatus mosquitoes (susceptible) were obtained from Benzon Research in Carlisle, Pa. 250 mosquitoes were used per replicate (5 replicates per test, per species). Adult mosquitoes were 3-8 days old.
(§5) Nootkatone was diluted in ethanol and acetone (note that Nootkatone diluted in acetone was not tested against An. quadrimaculatus). A positive control consisting of 20% DEET in ethanol was prepared using stock solutions. Negative controls consisted of no treatment, and ethanol-only treatment.
(§6) The treatments were applied directly to prepared collagen membranes by pipetting 25 μL of the appropriate substance onto a membrane and spreading it evenly with the tip of the pipette.
(§7) Exposure container. A 30.5 cm×30.5 cm×30.5 cm rigid plastic frame supported by four, 4 cm high legs, with a sleeved entry on one side and a sliding door on the bottom.
(§8) Membrane feeder. Five wells (3 cm in diameter×8 mm in depth) in line on a hollow plastic block (6 cm wide×22 cm long×3 cm deep), which fits through the sliding door in the bottom of the exposure container. Hoses attached to each side of the block circulate heated water that is pumped from a water bath. The sliding door in the bottom of the exposure container covers and uncovers the wells in the membrane feeder, allowing mosquitoes to access the wells.
(§9) Test set-up. The membrane feeder was connected to a heated water bath, and warm water passed through the feeder via a circulating pump so that the wells were warmed to 89-95° F. Seventy-two (72) mg of ATP (disodium salt) were added to 26 mL of warmed citrated bovine blood, which was poured into the wells until they were completely full.
(§10) The collagen membranes were placed on vacuum greased wax paper for treatment. They were then treated as described above and left for five minutes to dry. After they dried, the membranes were placed over each of the wells (using vacuum grease as an adhesive), completely covering the blood.
(§11) Exposure to mosquitoes. The mosquitoes were released into the exposure container just prior to exposure to the membranes. The exposure container was then placed on the membrane feeder and the sliding door opened, allowing the mosquitoes to access the wells. The number of mosquitoes probing each membrane was recorded every two minutes for twenty minutes.
(§12) The above procedures were repeated until five replicates were completed. A new batch of 250 female mosquitoes and fresh blood were used for each replicate, and the wells were cleaned in between replicates. The position of the treatments was rotated for each replicate, so that each treatment was tested on each of the five wells.
(§13) Percent repellency was calculated for each replicate using the total number of probes with the following formula:
(§14) [formula] • where C=the total number of probes on the untreated well • and T=the total number of probes on the treated well
(§15) Average percent repellency and standard error were then calculated across all five replicates. Shapiro-Wilks tests were conducted to determine the normality of the data, based on total number of probes per replicate. Depending on normality, student t-tests (with concurrent F-tests for variance) or Mann-Whitney tests were then used to determine significance between the treatments.

[4] = tested on: female Anopheles quadrimaculatus mosquitoes; assay: as above; conditions: for Percent repellency: 1% Nootkatone in ethanol, 25 μL on collagen membrane, twenty minutes, average ± SE, n = 5
Source text: as §3, §4, §5, §6, §7, §8, §9, §10, §11, §12, §13, §14, §15

[5] = tested on: female Aedes aegypti mosquitoes; assay: as above; conditions: for Percent repellency: 25 μL on collagen membrane, twenty minutes, average ± SE, n = 5
Source text: as §3, §4, §5, §6, §7, §8, §9, §10, §11, §12, §13, §14, §15

[6] = tested on: termites (Reticulitermes flavipes); assay: Filter paper choice test of repelling action (Example 6)
Experimental: as §1, §2
Termites: One long glass tube with screened ends (to provide ventilation) was used for each test container. Test containers were placed into a larger container to prevent escapes, and were kept in darkness and at high humidity for the duration of the experiment. Treated and untreated filter papers were cut into strips and fitted inside the glass tubes. Treated replicates received one treated and one untreated paper; negative control replicates received two untreated strips. The two paper strips were pushed end to end to form one continuous strip, leaving a 2 mm gap running the entire length of the tube for viewing termite activity.
Termites: Termites were placed in the center of each test container and left to distribute undisturbed for 24 hours. At the end of the exposure period, the distribution (on or under each filter paper) of termites was recorded.
The number of insects in each location was converted to a percentage, for which the average and standard error were calculated across all five replicates.
Percent repellency was calculated with the following formula: % repellency=(1−((t/T)/(c/C)))*100 • Where t=number of insects on treated side of treated arena • T=total number of insects in treated arena • c=average number of insects on right side of untreated arenas • C=average total number of insects in untreated arenas

[7] = 0.5% nootkatone in ethanol on filter paper
[8] = 0.5% nootkatone in ethanol, 10 ticks per replicate, three minutes, Replicates 1-5
[9] = 1% Nootkatone diluted in ethanol and in acetone
[10] = 0.5% nootkatone in ethanol, 24 Hours post introduction, Replicates 1-3

SMILES: C=C(C)[C@@H]1CCC2=CC(=O)C[C@@H](C)[C@]2(C)C1 [Nootkatone, nootkatone]
- Average repellency compared with 20% DEET (FIG. 2) [1]: repellency similar to that of 20% DEET; also recorded: comparable repellency
- Repellency (conclusion in words) [2, 7]: highly repellent
- Raw data: number of ticks Not repelled, per replicate [2, 8]: 0 (3×) and 1 (2×)
- Raw data: number of ticks Repelled, per replicate [2, 8]: 9 (2×) and 10 (3×)
- Calculated percent repellency (average ± SE) ([2]; nootkatone (98%) 0.5% in ethanol on filter paper, treated upper half, up to three minutes to cross): 96.0 ± 2.4%
- Protection compared with untreated or ethanol alone (significance, α=0.05) [3, 9]: significantly higher protection
- Protection level compared with 20% DEET (significance, α=0.05) [3, 9]: not significantly different from 20% DEET
- Percent repellency ([3]; 1% Nootkatone in acetone): 80.1 ± 10.0%
- Percent repellency ([3]; 1% Nootkatone in ethanol): 83.8 ± 5.5%
- Percent repellency [4]: 90.3%
- Percent repellency ([4]; listed as Nootkatone (ethanol)): 90.3 ± 5.3%
- Protection compared with ethanol alone (significance) ([4]; 1% nootkatone diluted in ethanol): not found to be significantly different from ethanol alone
- Protection compared with untreated or ethanol alone (significance, α=0.05) [5, 9]: significantly higher protection
- Protection level compared with 20% DEET (significance, α=0.05) [5, 9]: not significantly different from 20% DEET
- Percent repellency ([5]; 1% Nootkatone in acetone): 91.5 ± 2.1%
- Percent repellency ([5]; 1% Nootkatone in ethanol): 92.0 ± 3.4%
- Repellency (conclusion in words) [6, 7]: highly repellent
- Raw data: number of termites on Treated strip of treated tube, per replicate [6, 10]: 0
- Raw data: number of termites on Untreated strip of treated tube, per replicate [6, 10]: 10
- Calculated percent repellency (average ± SE) ([6]; nootkatone (98%) 0.5% in ethanol on filter paper strips, one treated, one untreated, 24 hours): 100.0 ± 0.0%
